Assay results as given in patent US8372455B2, “Cosmetic composition with anti-free radical activity” (LVMH Recherche, priority 2006, dated 2013).

System: human keratinocytes (HaCaT)
Test: Antioxidizing power (free radical scavenging) in H2O2-treated keratinocytes with the DCFH-DA fluorescent probe
Type: cell-based
Conditions: 24 h treatment, 0.05 mg/ml ebselen, extract of Emblica, extract of Edelweiss, 0.1 μg/ml tocotrienol, idebenone, N-acetylcysteine, N=6, FIG. 1
Description: To do this, the inventors used an in vitro test on a model of human keratinocytes, which consisted in the in situ generation of free radicals in the presence and absence of substances with anti-free radical activity, and then in quantification, with the aid of a fluorescent probe of the type dichlorofluorescein diacetate (DCFH-DA), of the free radicals still present in the cells. This probe is well known to those skilled in the art and its use makes it possible to measure the amount of free radicals present as a function of the fluorescence signal emitted.
The antioxidizing power according to the invention, which corresponds in practice to the free radical scavenging power of each substance with anti-free radical activity or an association of such substances, is obtained using the following formula (A): antioxidizing power=([…])×100 (A) in which: Δ control=difference in fluorescence values between the control not treated with an active substance or an association of such substances, and the control treated with the reference oxidizing agent hydrogen peroxide (H2O2); Δ test=difference in fluorescence values between the control treated with an active substance or an association of active substances, and the control treated with H2O2.
In practice, the value of Δ control represents the situation where the oxidation is greatest. This value is to be considered as that of 100% oxidation. It is then possible, by taking the ratio ([…])×100, to determine the percentage oxidation in the presence of an active substance or an association of such active substances. The antioxidizing power can then be calculated as the difference from the maximum value of 100, corresponding to application of the above formula. […]
The fluorescence emitted is then directly proportional to the concentration of free radicals that has reacted in the medium.
Thus, in the presence of a substance with anti-free radical activity, the DCFH present in the medium encounters fewer free radicals and the value of the fluorescence signal emitted decreases as a consequence. […]

## CC(=O)N[C@@H](CS)C(=O)O [N-acetylcysteine]
  protective power (antioxidizing power) of individual substances with anti-free radical activity: weakly protective

## COC1=C(OC)C(=O)C(CCCCCCCCCCO)=C(C)C1=O [idebenone, 2,3-dimethoxy-6-(10-hydroxydecyl)-5-methyl-1,4-benzo-quinone]
  protective power (antioxidizing power) of individual substances with anti-free radical activity: weakly protective

## alpha-tocotrienol
  protective power (antioxidizing power) of individual substances with anti-free radical activity: relatively high protective power
